Columns and labels:
[1] = system: bEnd.3 mouse endothelial cells; assay: γH2AX foci count after bleomycin DSB induction, bEnd.3; type: cell-based; details: for Induced DSB number: one-hour treatment
Procedure: (§1) CHO-K1, bEnd.3 or transfected CHO-K1 cells were seeded in chambers of an 8-well chambered cover glass (Cellvis, Mountain View, Calif.) at 2×10^5 cells/mL with 0.5 mL culture media. After 24-hour incubation, cells were treated with 10 μg/mL bleomycin (Sigma-Aldrich, St. Louis, Mo.) for 1 or 12 hours or with 50 μg/mL for 1 hour, followed by immediate media change with fresh warm culture media. After indicated hours of incubation in fresh media, the treated cells were washed three times with Tris buffered saline (TBS), fixed with 4% paraformaldehyde in TBS for 15 min, washed three times with TBS, permeabilized with 0.1% Triton-X100 (Sigma-Aldrich, St. Louis, Mo.) in TBS for 5 min, and washed three times with TBS. Cells were then blocked in TBS containing 3% goat serum (Sigma-Aldrich, St. Louis, Mo.) for 1 hour, incubated with 1:500 primary antibody (anti-phosphorylated γH2AX antibody, EMD Millipore, Billerica, Mass.) at 4° C. overnight, washed three times with TBS, and incubated with 1:1000 Alexa Fluor 488-conjugated secondary antibody (anti-mouse IgG antibody, Life Technologies, Carlsbad, Calif.) for 1 hour at room temperature. After three TBS washes, nuclei were stained with 4′,6-diamidino-2-phenylindole (DAPI, Invitrogen, Carlsbad, Calif.) for 15 min and again washed three times with TBS. Images were taken using a LSM 710 confocal microscope (Carl Zeiss, Thornwood, N.Y.) with a 63× objective. At least 50 cells and foci were counted per cell sample in duplicate cultures using software ImageJ.

[2] = system: BHK-21 hamster fibroblast; assay: γH2AX foci count after bleomycin DSB induction, BHK-21; type: cell-based; details: for Induced DSB number: one-hour treatment
Procedure: [The source words this procedure for another cell line and reports this cell line under the same test.] as §1

CHO-K1 cells [3] = assay: γH2AX foci count after bleomycin DSB induction, CHO-K1; type: cell-based, Chinese hamster; details: for Induced DSB number: one-hour treatment
Procedure: as §1

CHO-K1 cells [4] = assay: γH2AX foci count in CHO-K1 cells transiently expressing DSB repair genes after bleomycin treatment; type: cell-based, Chinese hamster; details: CH-version gene transiently expressed; 12-hour 10 μg/mL bleomycin; FIG. 3
Source text: To clone eight DSB repair genes, total mRNA from CHO-K1 cells or Chinese hamster liver tissue was extracted using Qiagen RNeasy Mini kit and reverse-transcribed into cDNA to be used as templates to generate gene fragments by PCR. FBXO18 gene and partial sequences of RNF8 and LIG4 genes were synthesized as gBlocks Gene Fragments (Integrated DNA Technologies, Coralville, Iowa). A vector fragment was obtained by PCR amplification from plasmid pcDNA3.1/zeo(+) (Thermo Fisher, Waltham, Mass.). Plasmids expressing DSB repair genes were constructed via Gibson assembly of gene fragment(s) and the vector fragment following the manufacturer's instruction (New England Biolabs, Ipswich, Mass.).
CHO-K1, BHK-21 hamster fibroblast (ATCC, Manassas, Va.) and bEnd.3 mouse endothelial cells (ATCC, Manassas, Va.) were cultured in 5 mL Iscove's Modified Dulbecco's Medium (IMDM, Hyclone Laboratories Inc., Logan, Utah) supplemented with 10% fetal bovine serum (FBS, Hyclone Laboratories Inc., Logan, Utah) in T-25 culture flasks (Corning Inc., Corning, N.Y.) at 37° C. and 5% CO2. […]
CHO-K1, bEnd.3 or transfected CHO-K1 cells were seeded in chambers of an 8-well chambered cover glass (Cellvis, Mountain View, Calif.) at 2×10^5 cells/mL with 0.5 mL culture media. […] At least 50 cells and foci were counted per cell sample in duplicate cultures using software ImageJ.

Molecule: bleomycin
- DSB repair rate after removing bleomycin ([1]; bEnd.3 cells, 12-hour treatment with 10 μg/mL bleomycin): 1.03 DSB per hour
- Induced DSB number ([1]; bEnd.3, BL 10 μg/mL): 14
- Induced DSB number ([1]; bEnd.3, BL 50 μg/mL): 21
- Repair rate ([1]; bEnd.3, after BL 10 μg/mL one-hour treatment): 2.2 DSB/hour
- Repair rate ([1]; bEnd.3, after BL 50 μg/mL one-hour treatment): 3.2 DSB/hour
- Induced DSB number ([2]; BHK-21, BL 10 μg/mL): 13
- Induced DSB number ([2]; BHK-21, BL 50 μg/mL): 20
- Repair rate ([2]; BHK-21, after BL 10 μg/mL one-hour treatment): 1.8 DSB/hour
- Repair rate ([2]; BHK-21, after BL 50 μg/mL one-hour treatment): 2.3 DSB/hour
- DSB repair rate after removing bleomycin ([2]; BHK-21 cells, 12-hour treatment with 10 μg/mL bleomycin): 2.64 DSB per hour
- DSB repair rate after removing bleomycin (CHO-K1 cells [3]; CHO cells, 12-hour treatment with 10 μg/mL bleomycin): 0.89 DSB per hour
- Induced DSB number (CHO-K1 cells [3]; CHO-K1, BL 10 μg/mL): 6
- Induced DSB number (CHO-K1 cells [3]; CHO-K1, BL 50 μg/mL): 13
- Repair rate (CHO-K1 cells [3]; CHO-K1, after BL 10 μg/mL one-hour treatment): 0.9 DSB/hour
- Repair rate (CHO-K1 cells [3]; CHO-K1, after BL 50 μg/mL one-hour treatment): 1.7 DSB/hour

B1: LIG4: heterologous DSB repair protein DNA ligase IV, CH- or CHO-version, expressed from plasmid in CHO-K1 cells (protein, UniProt G3GTP0 1-912, looked up)
DNA ligase 4: MATSQTSQTVAAHVPFADLCSTLERIQKSKERAEKIRHFKEFLDSWRKFHDALHKNKKDVTDSFYPAMRLILPQLERERMAYGIKETMLAKLYIELLNLPREGKDALKLLNYRTPSGARTDAGDFAVIAYFVLKPRCLQKGSLTIQQVNELLDLVASNNSGKRKDLVKKSLLQLITQSSALEQKWLIRMIIKDLKLGVSQQTILNIFHNDAVELHNVTTDLEKVCRQLHDPAVGLSDISITLFSAFKPMLAAVADVERVEKDMKQQSFYIETKLDGERMQMHKDGSVYQYFSRNGYNYTDQFGASPQEGTLTPFIHDAFRTDVQVCILDGEMMAYNPTTQTFMQKGVKFDIKRMVEDSDLQTCYCVFDVLMVNNKKLGRETLRKRYDILNSTFTPIQGRIEIVQKKLAQTKNEVVDALNEAIDKREEGIMIKHPLSIYKPDKRGEGWLKIKPEYVSGLMDELDLLIVGGYWGKGSRGGMMSHFLCAVAEKPPHGEKPSVFHTLCRVGSGYTMKELYDLGLKLAKYWKPFHKKSPPSSILCGTEKPEVYIEPCNSVIVQIKAAEIVPSDMYKTGTTLRFPRIEKIRDDKEWHECMTLGDLEELRGKASGKLATKHLHVGDDDEPREKRRKPVSKMKKTIGIIEHLKAPNLSNISKVSNVFEDVEFCVMSGLDGYPKSDLENRIAEFGGYIVQNPGPDTYCVIAGCENIRVKNIISSDQHDVVKPEWLLECFKTKTCVPWQPRFMIHMCPSTKQHFAREYDCYGDSYFVDTDLDQLKEVFLGIKKAGEHQTPEEMAPVIADLEYRYSWDHSPLCMFRHCTVYLDLYAVINDSSSKIKATRLDVTALELRFHGAKVVSHLSEGVSHVIIGENQSRVSDFKVFRRTLKKKFKILQERWVTDSVDKGELQEENQYLL
- DSB level at one hour after bleomycin removal versus control CHO-K1 cells (CHO-K1 cells [4]): lower DSB level
- DSB repair within 24 hours after bleomycin removal versus control CHO-K1 cells (CHO-K1 cells [4]): significantly improved DSB repair
